Test results taken from the OligoGym collection.
After the bases stand the sugars from the 5' end (letter, count) and the backbone: PS all phosphorothioate, else s phosphorothioate and o phosphodiester by linkage. Methylation of C is not given here. e = 2'-O-(2-methoxyethyl) (MOE); k = constrained ethyl (cEt); d = 2'-deoxy (DNA); m = 2'-O-methyl

Target: HSD17B13
Settings: ASO, HepaRG

Row | Sequence | target mRNA inhibition (1 µM) [%] | further results
1 | GGATGTTGACCTCAAA (sugars k3 d10 k3, PS) | 5 | 
2 | GGATTAATCATGGGAC (sugars k3 d10 k3, PS) | 44 | 
3 | GGATTAATTCCCTTCC (sugars k3 d10 k3, PS) | 10 | 
4 | GGATTGCAGAAGAGTA (sugars k3 d10 k3, PS) | 76 | target mRNA inhibition (0.02 µM): 0%; target mRNA inhibition (0.078 µM): 13%; target mRNA inhibition (0.313 µM): 47%; target mRNA inhibition (1.25 µM): 77%; target mRNA inhibition (5 µM): 74%
5 | GGCAAACCTTGAATGA (sugars k3 d10 k3, PS) | 61 | 
6 | GGCAAATTTGCTGGAA (sugars k3 d10 k3, PS) | 54 | 
7 | GGCACTAAAGGTTTCT (sugars k3 d10 k3, PS) | 62 | target mRNA inhibition (0.02 µM): 0%; target mRNA inhibition (0.078 µM): 26%; target mRNA inhibition (0.313 µM): 41%; target mRNA inhibition (1.25 µM): 66%; target mRNA inhibition (5 µM): 75%
8 | GGCAGTAAAGTGCTAA (sugars k3 d10 k3, PS) | 62 | 
9 | GGCAGTTGAAGTTGAT (sugars k3 d10 k3, PS) | 46 | 
10 | GGCATGGCTACAGATT (sugars k3 d10 k3, PS) | 69 | 
11 | GGCTAAAATGGTCATC (sugars k3 d10 k3, PS) | 75 | 
12 | GGCTACAGATTGGAAT (sugars k3 d1 m1 d8 k3, PS) | 40 | 
13 | GGCTACAGATTGGAAT (sugars k3 d9 k3 e1, PS) | 28 | 
14 | GGCTAGGGAAATCTTT (sugars k3 d10 k3, PS) | 57 | 
15 | GGCTATAACTGGAAGG (sugars k3 d10 k3, PS) | 52 | 
16 | GGCTTATGAAGTTAGT (sugars k3 d10 k3, PS) | 59 | 
17 | GGGAGGTAGCTTTTGT (sugars kkdddddddddkekek, PS) | 66 | 
18 | GGGTCCACTTTTGGTG (sugars k3 d10 k3, PS) | 13 | 
19 | GGTAAGGAATCCCTTC (sugars k3 d10 k3, PS) | 43 | 
20 | GGTAATTAATCTTGTT (sugars k3 d10 k3, PS) | 58 | 
21 | GGTCACCTTTCATAAT (sugars k3 d1 m1 d8 k3, PS) | 48 | 
22 | GGTCACCTTTCATAAT (sugars k3 d9 k3 e1, PS) | 49 | 
23 | GGTCAGTAGAGAGCAT (sugars k3 d10 k3, PS) | 79 | 

Row | Sequence | target mRNA inhibition (1 µM) [%] | further results
24 | GGTCATTTAGAATACG (sugars k3 d10 k3, PS) | 39 | 
25 | GGTGGACTTCAGAGTT (sugars k3 d10 k3, PS) | 26 | 
26 | GGTGGTAACGGTGATC (sugars k3 d10 k3, PS) | 31 | 
27 | GTAAATGATGGCAGGA (sugars k3 d10 k3, PS) | 34 | 
28 | GTAAGCTGAGAGTTCT (sugars k3 d10 k3, PS) | 49 | 
29 | GTAAGGTAAAGTCTAA (sugars k3 d10 k3, PS) | 37 | 
30 | GTAAGTATTCCATCTA (sugars k3 d1 m1 d8 k3, PS) | 43 | 
31 | GTAAGTATTCCATCTA (sugars k3 d9 k3 e1, PS) | 39 | 
32 | GTAAGTATTCCATCTA (sugars kkdddddddddkekek, PS) | 53 | 
33 | GTAATAAAGTCCAGAA (sugars k3 d10 k3, PS) | 66 | 
34 | GTAATAGCCAGTACAG (sugars k3 d9 k3 e1, PS) | 62 | 
35 | GTAATCACAAGTAAGG (sugars k3 d9 k3 e1, PS) | 56 | 
36 | GTAATGAGAACAATCT (sugars k3 d10 k3, PS) | 48 | 
37 | GTAATTGCTATAGTAA (sugars k3 d10 k3, PS) | 33 | 
38 | GTAATTGGCTCTTGAG (sugars k3 d10 k3, PS) | 44 | 
39 | GTAAUAGCCAGTACAG (sugars k3 d1 m1 d8 k3, PS) | 62 | 
40 | GTACAAATTTATGCCA (sugars k3 d10 k3, PS) | 45 | 
41 | GTAGAATTGTCTGTTA (sugars k3 d10 k3, PS) | 51 | 
42 | GTAGCTTTTGTCCACC (sugars kkdddddddddkekek, PS) | 34 | 
43 | GTAGGCTAAACCCTGG (sugars k3 d10 k3, PS) | 62 | 
44 | GTAGTGTAAGCTGAGA (sugars k3 d10 k3, PS) | 81 | 
45 | GTATAGCTGCATTTCT (sugars k3 d10 k3, PS) | 35 | 
46 | GTATAGTATTCTTCAC (sugars k3 d10 k3, PS) | 81 | target mRNA inhibition (0.02 µM): 15%; target mRNA inhibition (0.078 µM): 4%; target mRNA inhibition (0.313 µM): 29%; target mRNA inhibition (1.25 µM): 61%; target mRNA inhibition (5 µM): 86%

Row | Sequence | target mRNA inhibition (1 µM) [%] | further results
47 | GTATAGTTATCTTCTC (sugars k3 d1 m1 d8 k3, PS) | 54 | 
48 | GTATAGTTATCTTCTC (sugars k3 d10 k3, PS) | 59 | 
49 | GTATCTTATAAGACTA (sugars k3 d9 k3 e1, PS) | 72 | 
50 | GTATGTTTATGTAAGC (sugars k3 d9 k3 e1, PS) | 71 | 
51 | GTATGTTTATGTAAGC (sugars k3 d10 k3, PS) | 80 | target mRNA inhibition (0.02 µM): 0%; target mRNA inhibition (0.078 µM): 16%; target mRNA inhibition (0.313 µM): 33%; target mRNA inhibition (1.25 µM): 77%; target mRNA inhibition (5 µM): 87%
52 | GTATTCCATCTATCAG (sugars k3 d10 k3, PS) | 52 | 
53 | GTCATAAAAATCGCTG (sugars k3 d10 k3, PS) | 72 | target mRNA inhibition (0.02 µM): 25%; target mRNA inhibition (0.078 µM): 34%; target mRNA inhibition (0.313 µM): 51%; target mRNA inhibition (1.25 µM): 70%; target mRNA inhibition (5 µM): 86%
54 | GTCATTTAGAATACGC (sugars k3 d10 k3, PS) | 46 | 
55 | GTCCACTTGAATTCTG (sugars k3 d10 k3, PS) | 18 | 
56 | GTCCAGAATAGAGTTG (sugars k3 d10 k3, PS) | 60 | 
57 | GTCCAGGTTGAGATAA (sugars k3 d1 m1 d8 k3, PS) | 68 | 
58 | GTCCAGGTTGAGATAA (sugars k3 d9 k3 e1, PS) | 52 | 
59 | GTCCAGGTTGAGATAA (sugars kkdddddddddkekek, PS) | 36 | 
60 | GTCCCAGCATTATTCA (sugars k3 d10 k3, PS) | 21 | 
61 | GTCCTAGGGAGGAGGT (sugars k3 d10 k3, PS) | 36 | 
62 | GTCGGATTATTTTTTC (sugars k3 d10 k3, PS) | 61 | 
63 | GTCTAAAGTGCTGGTT (sugars k3 d10 k3, PS) | 39 | 
64 | GTCTACCACATACGCA (sugars k3 d10 k3, PS) | 66 | 
65 | GTCTACCTCTAAGTTA (sugars k3 d1 m1 d8 k3, PS) | 15 | 
66 | GTCTTAAACCTTCCCT (sugars k3 d9 k3 e1, PS) | 50 | 
67 | GTCTTGATGTAGTGGG (sugars k3 d9 k3 e1, PS) | 70 | 
68 | GTCTTGATGTAGTGGG (sugars k3 d10 k3, PS) | 67 | target mRNA inhibition (0.02 µM): 17%; target mRNA inhibition (0.078 µM): 22%; target mRNA inhibition (0.313 µM): 41%; target mRNA inhibition (1.25 µM): 72%; target mRNA inhibition (5 µM): 87%
69 | GTCTTGATGTAGTGGG (sugars kkdddddddddkekek, PS) | 18 | 
